# ChEMBL document CHEMBL1201862, “PubChem BioAssay data set” (2004)
# Calls of active or inactive are those of the source.
# Experiments:
# Mu-type opioid receptor = Mu-type opioid receptor (Homo sapiens, UniProt P35372); assay type: functional, cell-based;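 note: U2OS cells with beta-arrestin recruitment to OPRM1 by beta-gal complementation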
# [1] = target: 5-hydroxytryptamine receptor 2A (Mus musculus, UniProt P35363); assay type: functional, cell-based;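 note: CHO-K1 cells with tagged receptor and beta-arrestin; agonist potency measured as compound-induced activation of the receptor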
# [2] = target: Photoreceptor-specific nuclear receptor (Homo sapiens, UniProt Q9Y5X4); assay type: functional, cell-based;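 note: CHO-S cells with Gal4-NCOR and VP16-NR2E3 two-hybrid luciferase reporter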
# INS1 = experiment: beta cell apoptosis inhibitors, cytokine rescue, dose response, luminescence, retest (AID 449756); assay type: functional, cell-based; details: Rattus norvegicus;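 note: cell death triggered by IL-1 beta plus TNF-alpha plus IFN-gamma mixture; protective hits raise ATP signal compared with cytokine alone wells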
# Major prion protein = Major prion protein (Homo sapiens, UniProt P04156); assay type: functional, cell-based
# [3] = target: T1, Small ubiquitin-related modifier 1 (Homo sapiens, UniProt P63165); experiment: inhibitors of SUMO1 partner interactions, dose response, biochemical, FRET (AID 624383); assay type: functional; details: read-out: IC50_Mean
# [4] = target: T1, Small ubiquitin-related modifier 1; experiment: inhibitors of SUMO1 peptide binding, dose response, biochemical, fluorescence polarization, uHTS hits (AID 624382); assay type: functional; details: read-out: IC50_Mean
# [5] = target: T2, Probable nicotinate-nucleotide adenylyltransferase (Staphylococcus aureus (strain N315), UniProt P65502); assay type: functional, Staphylococcus aureus subsp. aureus N315;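 for IC50 Mean: confirmatory dose-response retesting of NadD inhibitor hits first found in an ultra-high-throughput screen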
# [6] = target: T3, RNA-binding protein pos-1 (Caenorhabditis elegans, UniProt G5EF15); experiment: inhibitors of POS-1/mex-3 RNA binding, dose response, biochemical, fluorescence polarization (AID 1964);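 note: purified POS-1 fused to maltose binding protein made in E. coli; potency of compounds blocking POS-1 binding to fluorescent RNA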
# T3 sequence (G5EF15 whole entry): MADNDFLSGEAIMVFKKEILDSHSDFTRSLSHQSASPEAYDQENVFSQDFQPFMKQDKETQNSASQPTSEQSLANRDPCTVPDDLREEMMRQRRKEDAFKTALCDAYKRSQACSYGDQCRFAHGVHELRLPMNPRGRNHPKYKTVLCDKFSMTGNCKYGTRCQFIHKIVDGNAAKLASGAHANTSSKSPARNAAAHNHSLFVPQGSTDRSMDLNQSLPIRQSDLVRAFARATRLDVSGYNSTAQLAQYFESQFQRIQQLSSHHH
# [7] = target: T4, Zinc finger protein mex-5 (Caenorhabditis elegans, UniProt Q9XUB2); experiment: MEX-5/TCR-2 RNA interaction inhibitors, dose response, biochemical, C. elegans, fluorescence polarization (AID 1960)
# T4 sequence (Q9XUB2 whole entry): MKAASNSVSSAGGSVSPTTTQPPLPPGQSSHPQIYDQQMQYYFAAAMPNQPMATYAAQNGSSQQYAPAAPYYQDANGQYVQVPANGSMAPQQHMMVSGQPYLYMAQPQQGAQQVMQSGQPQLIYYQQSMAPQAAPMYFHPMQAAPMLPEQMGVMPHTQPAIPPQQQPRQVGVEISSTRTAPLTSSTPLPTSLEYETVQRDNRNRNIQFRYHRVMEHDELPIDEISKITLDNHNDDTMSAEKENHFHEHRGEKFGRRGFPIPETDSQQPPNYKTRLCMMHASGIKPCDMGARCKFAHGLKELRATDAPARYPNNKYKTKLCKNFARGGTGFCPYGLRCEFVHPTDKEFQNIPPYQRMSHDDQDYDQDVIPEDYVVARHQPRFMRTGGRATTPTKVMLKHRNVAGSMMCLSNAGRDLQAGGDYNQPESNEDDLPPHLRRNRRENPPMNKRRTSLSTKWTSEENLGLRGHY
# [8] = target: T2, Probable nicotinate-nucleotide adenylyltransferase; assay type: functional, Staphylococcus aureus subsp. aureus N315; details: read-out: IC50_Mean
# Beta-lactamase [9] = target: Beta-lactamase (Salmonella choleraesuis (strain SC-B67), UniProt Q5J463)
# Beta-lactamase [10] = target: Beta-lactamase (Pseudomonas aeruginosa, UniProt Q79MP6);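 note: biochemical dose-response test of metallo-beta-lactamase enzyme inhibition, read out by epi-absorbance; purified recombinant IMP-1 metallo-beta-lactamase with nitrocefin as substrate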
# [11] = target: T5, Carboxy-terminal domain RNA polymerase II polypeptide A small phosphatase 1 (Homo sapiens, UniProt Q9GZU7); experiment: inhibitors of CTDSP1, concentration-response testing, biochemical assay, absorbance-based, actives from ultra-high-throughput screening (AID 540297); assay type: functional
# T5 sequence (Q9GZU7 whole entry): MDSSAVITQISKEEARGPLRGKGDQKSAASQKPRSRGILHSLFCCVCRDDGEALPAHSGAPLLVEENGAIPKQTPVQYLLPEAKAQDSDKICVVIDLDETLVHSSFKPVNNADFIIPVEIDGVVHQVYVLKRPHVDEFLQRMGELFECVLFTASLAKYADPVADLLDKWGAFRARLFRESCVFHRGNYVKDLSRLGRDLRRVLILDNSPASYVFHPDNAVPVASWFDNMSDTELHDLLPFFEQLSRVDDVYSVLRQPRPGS
# [12] = target: T6, High affinity choline transporter 1 (Homo sapiens, UniProt Q9GZV3); experiment: CHT inhibitors, dose response, cell-based, 10-point CRC, membrane potential dye (AID 588401); assay type: functional;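 note: membrane potential dye fluorescence of choline-evoked depolarization via CHT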
# T6 sequence (Q9GZV3 whole entry): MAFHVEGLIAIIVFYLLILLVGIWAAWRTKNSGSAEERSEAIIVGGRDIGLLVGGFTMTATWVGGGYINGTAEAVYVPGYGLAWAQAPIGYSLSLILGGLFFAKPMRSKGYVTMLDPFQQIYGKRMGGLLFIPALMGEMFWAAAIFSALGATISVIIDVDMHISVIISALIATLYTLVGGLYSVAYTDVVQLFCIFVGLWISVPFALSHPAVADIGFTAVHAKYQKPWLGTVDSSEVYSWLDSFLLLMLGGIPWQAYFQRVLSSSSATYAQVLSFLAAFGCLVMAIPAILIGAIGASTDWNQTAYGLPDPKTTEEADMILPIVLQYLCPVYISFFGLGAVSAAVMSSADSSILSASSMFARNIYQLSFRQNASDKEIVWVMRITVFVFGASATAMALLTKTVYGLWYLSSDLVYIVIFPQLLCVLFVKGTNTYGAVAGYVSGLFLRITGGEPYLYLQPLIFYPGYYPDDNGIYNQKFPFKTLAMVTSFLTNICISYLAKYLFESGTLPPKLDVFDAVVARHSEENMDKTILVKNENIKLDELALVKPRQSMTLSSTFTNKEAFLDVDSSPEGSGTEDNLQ
# [13] = target: T6, High affinity choline transporter 1; experiment: CHT inhibitors, dose response, cell-based, 5-point CRC, membrane potential dye (AID 504840); assay type: functional
# Cytochrome P450 2C9 = Cytochrome P450 2C9 (Homo sapiens, UniProt P11712)
# [14] = target: DNA (cytosine-5)-methyltransferase 1 (Homo sapiens, UniProt P26358); experiment: DNMT1 methyltransferase inhibitors, confirmation, biochemical, fluorescent molecular beacon (AID 602386); assay type: functional
# Genome polyprotein = Genome polyprotein (dengue virus type 2, UniProt P29990); experiment: Dengue-2 NS5 methyltransferase inhibitors, primary screen, biochemical, confirmation dose response (AID 588689); assay type: functional
# [15] = target: T7, ATP-dependent translocase ABCB1 (Homo sapiens, UniProt P08183); experiment: ABCG2 efflux pump inhibitor potency, dose response, Ig-MXP3 cells, JC-1, flow cytometry, set 2 (AID 504566); assay type: functional; details: read-out: EC50_MICROM_;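 note: flow cytometry median green fluorescence of retained JC-1 dye; potency of efflux pump inhibition measured as rising substrate retention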
# [16] = MC4R antagonists, dose response, counter-screen for LGR2 antagonist project, cell-based, plate reader, cherry pick (AID 743444); assay type: functional;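 note: transfected HEK 293 cells stimulated with alpha-MSH peptide; potency of inhibitors of the alpha-MSH evoked signal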
# H9c2 = experiment: cells; assay type: functional, cell-based; details: Rattus norvegicus, H9c2, Myocardium;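 note: confirmatory concentration-response retest of ultra-high-throughput screening hits for modulation of myocardial damage; cell death induced by hydrogen peroxide oxidative stress; compound pretreatment for 60 min then peroxide exposure for 2 h; potency is for protecting the cells against peroxide damage rather than for killing them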
# [17] = target: T8, COUP transcription factor 2 (Homo sapiens, UniProt P24468); experiment: Luminescence-based cell-based high throughput dose response assay to identify inhibitors of COUP-TFII (NR2F2).; assay type: functional;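 note: HEK293 cells transiently cotransfected with COUP-TFII expression vector and reporter; luciferase reporter luminescence driven by COUP-TFII from the pX2-168 reporter plasmid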
# T8 sequence (P24468 whole entry): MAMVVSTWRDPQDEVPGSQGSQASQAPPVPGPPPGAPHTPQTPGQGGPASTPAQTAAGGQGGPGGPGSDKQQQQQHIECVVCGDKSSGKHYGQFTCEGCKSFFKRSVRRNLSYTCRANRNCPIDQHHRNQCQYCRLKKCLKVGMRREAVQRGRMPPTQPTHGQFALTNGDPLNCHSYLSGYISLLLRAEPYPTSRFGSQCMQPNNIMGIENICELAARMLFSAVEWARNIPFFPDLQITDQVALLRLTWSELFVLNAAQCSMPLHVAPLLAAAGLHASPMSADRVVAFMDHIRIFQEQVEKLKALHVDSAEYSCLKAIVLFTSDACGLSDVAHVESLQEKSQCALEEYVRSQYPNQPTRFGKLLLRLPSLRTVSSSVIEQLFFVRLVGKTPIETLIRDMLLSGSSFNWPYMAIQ
# [18] = HEK293 cell cytotoxicity, dose response, cytotoxicity control, plate reader, cherry-picked samples (AID 743446); assay type: functional, cell-based
# [19] = A549 cell cytotoxicity, dose response, cytotoxicity control, plate reader, cherry-pick, antagonist series (AID 743412); assay type: functional, cell-based
# [20] = HepG2 cell cytotoxicity, dose response, cytotoxicity control, plate reader, cherry-pick, antagonist series (AID 743416); assay type: functional, cell-based
# [21] = target: T7, ATP-dependent translocase ABCB1; experiment: ABCB1 efflux inhibitor potency, dose response, Jurkat-DNR cells, JC-1, flow cytometry, set 2 (AID 504569); assay type: functional; details: read-out: EC50_MICROM_;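 note: potency of pump inhibitors that raise cellular JC-1 green fluorescence up to the nicardipine level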
# [22] = LGR2 antagonists, dose response, cell-based, HEK293, CRE-luciferase reporter, cherry pick, set 2 (AID 743343); assay type: functional;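 note: transfected cells were stimulated with diluted bursicon conditioned medium after compound addition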
# [23] = miR-122 activators in hepatoma reporter cells, dose response, cell-based, Huh7 psiCHECK-miR122, Renilla luciferase, cherry-picked (AID 651956); assay type: functional;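 note: huh7 hepatoma cells stably carrying a psiCHECK-2 miR-122 sensor plasmid; renilla luciferase signal reporting endogenous miR-122 activity after 48 h compound exposure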
# [24] = intracellular Trypanosoma cruzi inhibitors in host cells – cell-based, plate reader, cherry-pick samples, set 3, dose response (AID 651818); assay type: functional;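 note: compounds incubated with infected cells for about four days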
# [25] = IGROV1 ovarian cancer cell cytotoxicity, dose response, PAX8 inhibitor project, plate reader, dry powder samples (AID 743043); assay type: functional, cell-based; details: IGROV-1
# Paired box protein Pax-8 = Paired box protein Pax-8 (Homo sapiens, UniProt Q06710); experiment: inhibitors of PAX8-driven TPO luciferase reporter, dose response, RMG-I cells, cherry-pick (AID 687027); assay type: functional, cell-based;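 note: luciferase reporter driven by Pax8 target thyroperoxidase promoter measured by SteadyGlo luminescence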
# [26] = NIH:OVCAR-3 ovarian cancer cell cytotoxicity, dose response, PAX8 inhibitor project, plate reader, dry powder samples (AID 743044); assay type: functional, cell-based
# [27] = cytotoxicity in OVCAR8 ovarian cancer cells, dose response, PAX8 project, cell-based, plate reader, dry powder samples (AID 743197); assay type: functional; details: OVCAR-8
# [28] = T. cruzi growth inhibition in host cells, dose response, cell-based, plate reader, dry powder, set 2 (AID 652275); assay type: functional
smiles,measurement,setting,value
CCCN(CCC)C1CCc2ccc(O)cc2C1 (stereo unspecified),EC50,Mu-type opioid receptor,92.4 µM (inactive)
same,EC50,[1],0.0038 µM (active)
O=[N+]([O-])c1ccc(NC(S)=NCCc2ccc(F)cc2)cc1,IC50,[2],5.06 µM (active)
same,AC50,INS1,6.89 µM (active)
Cn1c(=O)c(C(=O)CSc2nncs2)c(N)n(Cc2ccccc2)c1=O,IC50,cells,> 138 µM (inactive)
same,IC50,Major prion protein,8.53 µM (active)
COc1ccc(OC)c(Nc2nc3ccccc3n3cnnc23)c1,IC50,[3],19.2 µM (active)
same,IC50,[4],> 66.6 µM (inactive)
CCCCC1=CC2=CC(=O)C(C)(OC(=O)c3cccs3)C(=O)C2=CO1 (stereo unspecified),IC50,[5],10.9 µM (active)
same,EC50,[6],35.4 µM (active)
same,EC50,[7],30.9 µM (active)
same,IC50,[8],34.4 µM (active)
Cc1nn(-c2ccccc2)c(Cl)c1/C=C(\CC(=O)O)c1nc2ccccc2s1,IC50,Beta-lactamase [9],> 59.6 µM (inactive)
same,IC50,Beta-lactamase [10],> 59.6 µM (inactive)
Cc1ccc(-c2nc(NC(=O)CSc3nnnn3-c3ccccc3)ns2)cc1,IC50,[2],1.06 µM (active)
COc1cccc(-c2cc3c(=O)n(-c4ccccc4)c(=S)[nH]c3s2)c1,IC50,cells,> 138 µM (inactive)
same,IC50,Major prion protein,6.34 µM (active)
CCOC(=O)c1c(NC(=O)COC(=O)c2ccc(NC(=O)CC#N)cc2)sc(C(=O)NC)c1C,IC50,[11],3.43 µM (active)
same,IC50,[3],6.69 µM (active)
same,IC50,[4],> 66.6 µM (inactive)
CC(=O)NN1C(=O)c2ccc(Oc3cccc([N+](=O)[O-])c3)cc2C1=O,IC50,[12],4.5 µM (active)
same,IC50,[13],9.92 µM (active)
same,AC50,Cytochrome P450 2C9,31.6 µM (inconclusive)
Nc1ccc(S(=O)(=O)Nc2nccs2)cc1N=Nc1ccccc1[N+](=O)[O-],IC50,[14],7.09 µM (active)
same,IC50,Genome polyprotein,64.7 µM (active)
COC(=O)C1CCN(CC(=O)Nc2ccc3c(c2)OCCO3)CC1,EC50,Mu-type opioid receptor,92.5 µM (inactive)
same,EC50,[1],76.1 µM (inactive)
COc1ccccc1-c1cc2nc(-c3ccccc3)cc(N3CCN(C(=O)c4ccco4)CC3)n2n1,EC50,[15],0.94 µM (active)
same,AC50,[16],6.15 µM (active)
same,IC50,H9c2,> 79 µM (inactive)
same,IC50,[17],4.17 µM (active)
same,AC50,[18],7.31 µM (active)
same,AC50,[19],7.34 µM (active)
same,AC50,[20],2.29 µM (active)
same,EC50,[21],3.41 µM (active)
same,AC50,[22],6.6 µM (active)
Cc1nc2cc(-c3cccc(Cl)c3)nn2c(N2CCN(C(=O)c3ccsc3)CC2)c1C,EC50,[15],0.56 µM (active)
same,EC50,[21],4.62 µM (active)
CNC(=O)C[C@H]1CC[C@@H]2[C@H](COc3ccc(NC(=O)Nc4ccccc4OC)cc3C(=O)N2C)O1,AC50,[23],23.1 µM (active)
C[C@H]1CN([C@@H](C)CO)C(=O)Cc2cc(NS(=O)(=O)c3ccc(Cl)cc3)ccc2O[C@@H]1CN(C)Cc1ccc(-c2ccccc2)cc1,AC50,[24],3.8 µM (active)
C[C@@H]1CCCCO[C@@H](CN(C)Cc2ccc(C(F)(F)F)cc2)[C@@H](C)CN([C@H](C)CO)C(=O)c2cc(NC(=O)Nc3ccc(C(F)(F)F)cc3)ccc2O1,AC50,[24],3.49 µM (active)
COc1cccc(-c2ccc3c(c2)[C@H]2[C@H](CCN2S(=O)(=O)c2ccccc2OC)[C@@H](CO)N3C)c1,AC50,[25],34.3 µM (active)
same,AC50,Paired box protein Pax-8,11.1 µM (active)
same,AC50,[26],21.6 µM (active)
same,AC50,[27],25.4 µM (active)
Cc1ccccc1-c1ccc([C@H]2[C@H](CO)N3CCCCN(C(=O)CN4CCOCC4)C[C@@H]23)cc1,AC50,[28],0.42 µM (active)
